Measured values reported in ChEMBL document CHEMBL4706756, “Combination Therapy of RNA Interference and Small Molecules for Treating Hepatitis B Virus Infection” (ACS Med Chem Lett, 2021).
Activity calls are given as the source filed them. The rule behind the calls is not given here.

How the values were obtained:
Hepatitis B virus [1] = assay: Antiviral activity against HBV infected in CHB patient assessed as reduction in HBsAg level at 250 mg, po administered daily from 1 to 84 days in presence of RNAi component and NA relative to control; assay type: functional; set-up: scale not given: the % may be the effect or the level left; conditions: time 1-84 day
Hepatitis B virus [2] = assay: Antiviral activity against HBV infected in CHB patient assessed as reduction in viral DNA level at 250 mg, po administered daily from 1 to 84 days in presence of RNAi component and NA; assay type: functional, organism-based; conditions: time 1-84 day
Hepatitis B virus [3] = assay: Antiviral activity against HBV infected in CHB patient assessed as reduction in viral RNA level at 250 mg, po administered daily from 1 to 84 days in presence of RNAi component and NA; assay type: functional, organism-based; conditions: time 1-84 day
Hepatitis B virus [4] = assay: Antiviral activity against HBV infected in CHB patient assessed as reduction in HBeAg level at 250 mg, po administered daily from 1 to 84 days in presence of RNAi component and NA; assay type: functional, organism-based; conditions: time 1-84 day
Hepatitis B virus [5] = assay: Antiviral activity against HBV infected in CHB patient assessed as reduction in HBcrAg level at 250 mg, po administered daily from 1 to 84 days in presence of RNAi component and NA; assay type: functional, organism-based; conditions: time 1-84 day
Hepatitis B virus [6] = assay: Antiviral activity against HBV infected in HBeAg-positive CHB patient assessed as reduction in HBsAg level at 250 mg, po administered daily from 1 to 84 days in presence of RNAi component and NA; assay type: functional, organism-based; conditions: time 1-84 day
Hepatitis B virus [7] = assay: Antiviral activity against HBV infected in HBeAg-negative CHB patient assessed as reduction in HBsAg level at 250 mg, po administered daily from 1 to 84 days in presence of RNAi component and NA; assay type: functional, organism-based; conditions: time 1-84 day
[8] = Toxicity in HBV infected CHB patient at 250 mg, po administered daily from 1 to 84 days in presence of RNAi component and NA; assay type: organism-based; conditions: human, in vivo, time 1-84 day

C[C@H](NS(=O)(=O)c1cc(C(=O)Nc2ccc(F)c(C#N)c2)n(C)c1)C(F)(F)F [BERSACAPAVIR]
Activity (Hepatitis B virus [1]): 90%
Activity (Hepatitis B virus [2]): Active
Activity (Hepatitis B virus [3]): Active
Activity (Hepatitis B virus [4]): Active
Activity (Hepatitis B virus [5]): Active
Activity (Hepatitis B virus [6]): Active
Activity (Hepatitis B virus [7]): Active
Activity [8]: Non-Toxic
